# Reference: patent EP4768487A1, “FUSED LACTAM RING COMPOUND AND USE THEREOF” (Chengdu Zenitar Biomedical Technology Co., Ltd., priority 2023, dated 2025)
# Key:
# PARP1 = biological target: T1, PARP1 (Homo sapiens, UniProt P09874); assay: PARP1 enzyme assay (histone-coated plate, chemiluminescence); type: biochemical; conditions: PARP1 0.02 nM, DNA 0.8 nM, NAD+ 3.5 µM; read-out: PARP-1 IC50
# T1 construct: purchased BPS 80501
# Description: 1.1.1. Buffer preparation: PBST: 1× PBS, 0.05% Tween-20; blocking buffer: 1× PBS, 0.05% Tween-20, 5% BSA; reaction buffer: 50 mM Tris-HCl (pH 7.5), 0.005% Tween-20, 0.01% BSA.
# 1.1.2. Coating: A 50 ng/mL Histone coating solution was prepared with 1× PBS and then transferred to a 384-well reaction plate at 25 µL/well. The plate was coated at 4 °C overnight.
# 1.1.3. Washing: After the coating was completed, the coating solution was discarded, and the plate was washed with the PBST solution. The method was as follows: PBST was transferred to the 384-well reaction plate at 50 µL/well, and the plate was left to stand for 5 min. The washing solution was then discarded, and the plate was refilled. The washing step was repeated 3 times. Finally, the reaction plate was patted dry and left for the next step of blocking.
# 1.1.4. Blocking: The blocking buffer was transferred to the 384-well reaction plate at 50 µL/well, and the plate was left to stand for 1 h.
# Washing: After the blocking was completed, the blocking buffer was discarded, and the plate was washed 3 times with the PBST solution according to the method in step 2. Finally, the reaction plate was patted dry.
# 1.1.5. A 1000-fold solution of a compound was prepared and then transferred at 1 µL/well to a 96-well plate containing 199 µL of the reaction buffer. The mixture was well mixed, and then the well mixed compound solution was transferred to the 384-well reaction plate at 5 µL/well. 1.1.6. A 25/10-fold PARP1-DNA solution was prepared with the reaction buffer and then transferred to the 384-well reaction plate at 10 µL/well. For the negative control wells, 10 µL
# of the DNA solution was transferred. The final concentrations of PARP1 and DNA were 0.02 nM and 0.8 nM, respectively.
# 1.1.9. Washing: After the reaction was completed, the reaction solution was discarded, and the plate was washed 3 times with the PBST solution according to the method in step 2. Finally, the reaction plate was patted dry.
# 1.1.10. A primary antibody (anti-Poly/Mono-ADP Ribose Rabbit mAb) was diluted 2000-fold with the blocking buffer and then added at 20 µL/well.
# 1.1.11. Washing: The primary antibody was discarded, and the plate was washed 3 times with the PBST solution according to the method in step 2. Finally, the reaction plate was patted dry.
# 1.1.12. A secondary antibody (anti-rabbit IgG, HRP-linked Antibody) was diluted 2000-fold with the blocking buffer and then added at 20 µL/well.
# 1.1.13. Washing: The secondary antibody was discarded, and the plate was washed 3 times with the PBST solution according to the method in step 2. Finally, the reaction plate was patted dry.
# 1.1.14. Color development: Femto-ECL Substrate A and Femto-ECL Substrate B were mixed at a ratio of 1:1, and the mixture was transferred to the 384-well reaction plate at 25 µL/well. 1.1.15. Reading: The chemiluminescence values (RLU) were measured using Envision.
# [1] = tested on: BRCA-mutated MDA-MB-436 cells; assay: Anti-proliferative activity against cells (CCK8): MDA-MB-436; type: cell-based; conditions: Homo sapiens, 72 h + 96 h culture
# [2] = tested on: BRCA wild-type DLD-1 cells; assay: Anti-proliferative activity against cells (CCK8): DLD-1; type: cell-based; conditions: Homo sapiens, 72 h + 96 h culture
# Description: BRCA wild-type DLD-1 cells were cultured in an RPMI-1640 medium containing 10% fetal bovine serum, 100 U/mL penicillin, and 100 µg/mL streptomycin, and incubated in an incubator with 5% saturated CO2 at 37 °C. When the cells grew to 80% confluence, they were collected, centrifuged at 300 g for 10 min, and then plated onto a 96-well plate at 1000 cells/well. After 24 h, different final concentrations (0 µM, 1 µM, and 10 µM) of PARPi were added, and the cells were cultured for another 72 h. The cells were subjected to medium exchange treatment (re-supplemented with PARPi at the same final concentrations) and then cultured for another 96 h. The 96-well plate was taken out.
# T1 sequence (P09874 whole entry): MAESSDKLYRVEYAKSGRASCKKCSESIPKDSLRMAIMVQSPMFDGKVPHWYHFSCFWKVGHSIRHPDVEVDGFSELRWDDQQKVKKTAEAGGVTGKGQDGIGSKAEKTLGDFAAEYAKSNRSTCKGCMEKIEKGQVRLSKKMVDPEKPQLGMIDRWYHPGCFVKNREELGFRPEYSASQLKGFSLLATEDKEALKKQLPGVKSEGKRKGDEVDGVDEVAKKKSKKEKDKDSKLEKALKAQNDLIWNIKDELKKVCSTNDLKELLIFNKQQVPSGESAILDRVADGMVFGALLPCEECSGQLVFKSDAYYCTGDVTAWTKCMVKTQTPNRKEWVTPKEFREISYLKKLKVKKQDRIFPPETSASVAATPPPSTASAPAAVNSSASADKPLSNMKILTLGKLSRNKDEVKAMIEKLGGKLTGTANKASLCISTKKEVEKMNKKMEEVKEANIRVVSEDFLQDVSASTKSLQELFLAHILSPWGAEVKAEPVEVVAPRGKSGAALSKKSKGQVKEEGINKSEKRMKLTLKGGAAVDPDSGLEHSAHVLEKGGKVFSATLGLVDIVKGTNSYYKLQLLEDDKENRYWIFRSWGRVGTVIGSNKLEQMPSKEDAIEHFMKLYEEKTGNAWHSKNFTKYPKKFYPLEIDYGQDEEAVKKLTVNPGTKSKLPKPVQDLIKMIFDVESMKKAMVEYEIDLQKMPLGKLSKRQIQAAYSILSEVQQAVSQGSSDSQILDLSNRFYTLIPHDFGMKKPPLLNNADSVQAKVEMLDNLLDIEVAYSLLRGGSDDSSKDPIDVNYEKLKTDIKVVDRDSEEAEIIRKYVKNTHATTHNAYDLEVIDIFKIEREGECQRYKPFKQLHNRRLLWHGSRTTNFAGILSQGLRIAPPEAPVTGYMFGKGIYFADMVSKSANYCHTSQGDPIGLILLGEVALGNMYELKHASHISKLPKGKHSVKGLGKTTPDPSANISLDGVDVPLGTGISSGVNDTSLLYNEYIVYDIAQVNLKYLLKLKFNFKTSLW
smiles,measurement,setting,value
"CNC(=O)c1ccc(C2=CCN(CC3Cc4[nH]c(=O)c(C)cc4CO3)CC2)c(F)n1 (stereo not shown) [Example 50, 2-Fluoro-N-methyl-1'-((3-methyl-2-oxo-1,5,7,8-tetrahydro-2H-pyrano[4,3-b]pyridin-7-yl)methyl)-1',2',3',6'-tetrahydro-[3,4'-bipyridine]-6-carboxamide]",IC50,PARP1,50 to 500 nM
same,IC50,[1],350 nM
same,IC50,[2],> 1000 nM
"CNC(=O)c1ccc(C2=CCN(CC3Cc4[nH]c(=O)c(Cl)cc4CO3)CC2)c(F)n1 (stereo not shown) [Example 63, 1'-((3-Chloro-2-oxo-1,5,7,8-tetrahydro-2H-pyrano[4,3-b]pyridin-7-yl)methyl)-2-fluoro-N-met hyl-1',2',3',6'-tetrahydro-[3,4'-bipyridine]-6-carboxamide]",IC50,PARP1,50 to 500 nM
same,IC50,[1],430 nM
same,IC50,[2],> 1000 nM
"CNC(=O)c1ccc(N2CCN(C[C@H]3Cc4[nH]c(=O)c(C)cc4CO3)CC2)c(Cl)n1 [Example 95, (R)-6-chloro-N-methyl-5-(4-((3-methyl-2-oxo-1,5,7,8-tetrahydro-2H-pyrano[4,3-b]pyridin-7-yl)methyl)piperazin-1-yl)picolinamide]",IC50,PARP1,≤ 50 nM
same,IC50,[1],10.5 nM
same,IC50,[2],> 1000 nM
"CNC(=O)c1ccc(N2CCN(C[C@H]3CCc4nc(C5CC5)c(=O)[nH]c4C3)CC2)cn1 [Example 58, (S)-5-(4-((2-Cyclopropyl-3-oxo-3,4,5,6,7,8-hexahydroquinoxalin-6-yl)methyl)piperazin-1-yl) -N-methylpicolinamide]",IC50,PARP1,≤ 50 nM
same,IC50,[1],140 nM
same,IC50,[2],> 1000 nM
"Cc1cc2c([nH]c1=O)CC(CN1CCN(c3ccc(C(=O)NC4CC4)nc3F)CC1)OC2 (stereo not shown) [Example 41, N-Cyclopropyl-6-fluoro-5-(4-((3-methyl-2-oxo-1,5,7,8-tetrahydro-2H-pyrano[4,3-b]pyridin-7-yl)methyl)piperazin-1-yl)picolinamide]",IC50,PARP1,50 to 500 nM
same,IC50,[1],16 nM
same,IC50,[2],> 1000 nM
"CCc1cc2c([nH]c1=O)CC(CN1CCN(c3ccc(C(=O)NC)nc3)CC1)OC2 (stereo not shown) [Compound 1, 5-(4-((3-Ethyl-2-oxo-1,5,7,8-tetrahydro-2H-pyrano[4,3-b]pyridin-7-yl)methyl)piperazin-1-yl) -N-methylpicolinamide]",IC50,PARP1,≤ 50 nM
same,IC50,[1],300 nM
same,IC50,[2],> 1000 nM
"C=Cc1cc2c([nH]c1=O)CC(CN1CC=C(c3ccc(C(=O)NC)nc3F)CC1)OC2 (stereo not shown) [Example 68, 2-Fluoro-N-methyl-1'-((2-oxo-3-vinyl-1,5,7,8-tetrahydro-2H-pyrano[4,3-b]pyridin-7-yl)methyl)-1',2',3',6'-tetrahydro-[3,4'-bipyridine]-6-carboxamide]",IC50,PARP1,≤ 50 nM
same,IC50,[1],6 nM
same,IC50,[2],> 1000 nM
"CCc1cc2c([nH]c1=O)CC(CN1CCN(c3ccc(C(=O)NCC(F)F)nc3F)CC1)OC2 (stereo not shown) [Example 49, N-(2,2-Difluoroethyl)-5-(4-((3-ethyl-2-oxo-1,5,7,8-tetrahydro-2H-pyrano[4,3-b]pyridin-7-yl)methyl)piperazin-1-yl)-6-fluoropicolinamide]",IC50,PARP1,≤ 50 nM
same,IC50,[1],300 nM
same,IC50,[2],> 1000 nM
"CNC(=O)c1ccc(N2CCN(CC3Cc4[nH]c(=O)c(C)cc4CO3)CC2)c(C#N)n1 (stereo not shown) [Example 76, 6-Cyano-N-methyl-5-(4-((3-methyl-2-oxo-1,5,7,8-tetrahydro-2H-pyrano[4,3-b]pyridin-7-yl)methyl)piperazin-1-yl)picolinamide]",IC50,PARP1,≤ 50 nM
same,IC50,[1],9.6 nM
same,IC50,[2],> 1000 nM
"CNC(=O)c1ccc(C2=CCN(C[C@H]3CCc4nc(C)c(=O)[nH]c4C3)CC2)c(F)n1 [Example 46, (S)-2-Fluoro-N-methyl-1'-((2-methyl-3-oxo-3,4,5,6,7,8-hexahydroquinoxalin-6-yl)methyl)-1', 2',3',6'-tetrahydro-[3,4'-bipyridine]-6-carboxamide]",IC50,PARP1,≤ 50 nM
same,IC50,[1],6.7 nM
same,IC50,[2],> 1000 nM
"CCc1cc2c([nH]c1=O)CC(CN1CCN(c3ccc(C(=O)NC)nc3C)CC1)OC2 (stereo not shown) [Compound 38, 5-(4-((3-Ethyl-2-oxo-1,5,7,8-tetrahydro-2H-pyrano[4,3-b]pyridin-7-yl)methyl)piperazin-1-yl)-N,6-dimethylpicoli namide]",IC50,PARP1,≤ 50 nM
same,IC50,[1],3.5 nM
same,IC50,[2],> 1000 nM
"CCc1cc2c([nH]c1=O)CC(CN1CCN(c3ccc(C(=O)Nc4cnn(C)c4)nc3F)CC1)OC2 (stereo not shown) [Example 78, 5-(4-((3-Ethyl-2-oxo-1,5,7,8-tetrahydro-2H-pyrano[4,3-b]pyridin-7-yl)methyl)piperazin-1-yl) -6-fluoro-N-(1-methyl-1H-pyrazol-4-yl)picolinamide]",IC50,PARP1,≤ 50 nM
same,IC50,[1],2.8 nM
same,IC50,[2],> 1000 nM
"CNC(=O)c1ccc(N2CCN(CC3Cc4[nH]c(=O)c(C5CC5)cc4CO3)CC2)c(Cl)n1 (stereo not shown) [Example 73, 6-Chloro-5-(4-((3-cyclopropyl-2-oxo-1,5,7,8-tetrahydro-2H-pyrano[4,3-b]pyridin-7-yl)methyl)piperazin-1-yl)-N-methylpicolinamide]",IC50,PARP1,50 to 500 nM
same,IC50,[1],15 nM
same,IC50,[2],> 1000 nM
"CCc1nc2c([nH]c1=O)C[C@@H](CN1CCC(c3ccc(C(=O)NC)nc3F)CC1)CC2 [Example 54, (S)-5-(1-((2-Ethyl-3-oxo-3,4,5,6,7,8-hexahydroquinoxalin-6-yl)methyl)piperidin-4-yl)-6-fluor o-N-methylpicolinamide]",IC50,PARP1,50 to 500 nM
same,IC50,[1],250 nM
same,IC50,[2],> 1000 nM
"CCc1cc2c([nH]c1=O)C[C@@H](CN1CCN(c3ccc(C(=O)NC)nc3F)CC1)OC2 [Example 65, (S)-5-(4-((3-Ethyl-2-oxo-1,5,7,8-tetrahydro-2H-pyrano[4,3-b]pyridin-7-yl)methyl)piperazin-1-yl)-6-fluoro-N-methylpicolinamide]",IC50,[1],0.7 nM
same,IC50,[2],> 1000 nM
"CNC(=O)c1ccc(C2CCN(CC3Cc4[nH]c(=O)c(C5CC5)cc4CO3)CC2)c(F)n1 (stereo not shown) [Example 61, 5-(1-((3-Cyclopropyl-2-oxo-1,5,7,8-tetrahydro-2H-pyrano[4,3-b]pyridin-7-yl)methyl)piperidin-4-yl)-6-fluoro-N-methylpicolinamide]",IC50,PARP1,50 to 500 nM
same,IC50,[1],360 nM
same,IC50,[2],> 1000 nM
"CCc1cc2c([nH]c1=O)CC(CN1CCN(c3ccc(C(=O)NC4CC4)nc3F)CC1)OC2 (stereo not shown) [Compound 3, N-Cyclopropyl-5-(4-((3-ethyl-2-oxo-1,5,7,8-tetrahydro-2H-pyrano[4,3-b]pyridin-7-yl)methyl)piperazin-1-yl)-6-fluoropicolinamide]",IC50,PARP1,≤ 50 nM
same,IC50,[1],1.5 nM
same,IC50,[2],> 1000 nM
"[2H]C([2H])([C@H]1CCc2nc(C)c(=O)[nH]c2C1)N1CCN(c2ccc(C(=O)NC3CC3)nc2F)CC1 [Example 88, (S)-N-Cyclopropyl-6-fluoro-5-(4-((2-methyl-3-oxo-3,4,5,6,7,8-hexahydroquinoxalin-6-yl)methyl-d2)piperazin-1-yl)picolinamide]",IC50,PARP1,≤ 50 nM
same,IC50,[1],6.5 nM
same,IC50,[2],> 1000 nM
"CNC(=O)c1ccc(C2=CCN(CC3Cc4[nH]c(=O)c(C(F)F)cc4CO3)CC2)c(F)n1 (stereo not shown) [Example 52, 1'-((3-(Difluoromethyl)-2-oxo-1,5,7,8-tetrahydro-2H-pyrano[4,3-b]pyridin-7-yl)methyl)-2-flu oro-N-methyl-1',2',3',6'-tetrahydro-[3,4'-bipyridine]-6-carboxamide]",IC50,PARP1,50 to 500 nM
same,IC50,[1],200 nM
same,IC50,[2],> 1000 nM
"CNC(=O)c1ccc(C2CCN(C[C@H]3CCc4nc(C)c(=O)[nH]c4C3)CC2)c(F)n1 [Example 80, (S)-6-Fluoro-N-methyl-5-(1-((2-methyl-3-oxo-3,4,5,6,7,8-hexahydroquinoxalin-6-yl)methyl)piperidin-4-yl)picolinamide]",IC50,[1],300 nM
same,IC50,[2],> 1000 nM
